Test results taken from patent US12252481B2, “Anti-viral compounds” (Aligos Therapeutics, Inc., priority 2021, dated 2025).
Read-outs that look alike come from different tables or passages of the source.

Legend:
[1] = test system: human beta-coronavirus OC43; experiment: OC43 coronavirus antiviral assay in HeLa cells (cytopathic effect, cell-titer-glo); type: cell-based; conditions: 6 days at 33° C.
[2] = test system: B.1.1.7 lineage SARS-CoV-2; experiment: microbe, parasite or virus in culture; type: cell-based; conditions: read-out: A549-dual_ACE2_TMPRSS2 (EC50)
SARS-Cov-2 3CLpro = biological target: T1, SARS-Cov-2 3CLpro (Severe acute respiratory syndrome coronavirus 2, UniProt P0DTD1); experiment: biochemical; conditions: read-out: SARS-Cov-2 IC50 (class)
T1 construct: 3CLpro and HRV3C was added using a Multidrop Combi

HRV3C = biological target: T2, HRV3C (Human rhinovirus 14, UniProt P03303); experiment: biochemical; design: species or system HRV; conditions: HRV3C, 30 mins preincubation, SAMDI-MS; read-out: HRV IC50 (bound)
T2 construct: 3CLpro and HRV3C was added using a Multidrop Combi

[3] = test system: A549-dual_ACE2_TMPRSS2 cells; conditions: read-out: A549-dual_ACE2_TMPRSS2 (CC50); assay medium without virus, MTS, numeric values
HeLa cells = experiment: Cytotoxicity in HeLa cells without OC43 virus (cell-titer-glo); conditions: HeLa cells without OC43 virus
human cathepsin L = biological target: T3, human cathepsin L (Homo sapiens, UniProt P07711); experiment: Cathepsin L assay (Z-FR-AMC fluorescence); type: biochemical; conditions: 10 pM human cathepsin L, 30 mins preincubation, Z-FR-AMC 2 μM
T3 construct: purchased R&D Systems
How it was run: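 Human cathepsin L (10 pM) was preincubated 30 min with compound, then reactions were started with Z-FR-AMC substrate (2 μM final). AMC fluorescence (355/460 nm) was read every 2 min over 30 min. IC50 came from a four-parameter curve fit.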

[4] = test system: SARS-CoV-2-GHB-03021/2020; type: cell-based; conditions: read-out: VeroE6 + CP (EC50)
[5] = 3CLpro, 30 mins preincubation, SAMDI-MS
[6] = Betacoronavirus 1, OC43, HeLa, 144 h, read-out: EC50 (class)
[7] = Severe acute respiratory syndrome coronavirus 2, 96 h

T3 sequence (P07711 114-333): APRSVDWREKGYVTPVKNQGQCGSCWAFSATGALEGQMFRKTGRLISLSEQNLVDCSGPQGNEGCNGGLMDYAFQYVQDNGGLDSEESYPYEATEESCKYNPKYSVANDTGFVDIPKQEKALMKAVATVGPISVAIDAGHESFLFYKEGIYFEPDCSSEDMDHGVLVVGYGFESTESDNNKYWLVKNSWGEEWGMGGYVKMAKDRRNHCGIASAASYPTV
T2 sequence (P03303 1538-1719): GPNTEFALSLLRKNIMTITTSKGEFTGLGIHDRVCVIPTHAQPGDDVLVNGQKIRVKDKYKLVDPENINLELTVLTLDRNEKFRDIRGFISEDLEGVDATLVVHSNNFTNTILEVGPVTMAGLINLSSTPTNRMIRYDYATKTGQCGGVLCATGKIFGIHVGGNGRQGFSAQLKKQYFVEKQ

In the case of CC(C)(C)[C@H](NC(=O)C(F)(F)F)C(=O)N1C[C@@]2(F)[C@@H]([C@H]1C(=O)N[C@H](C#N)C[C@@H]1CCNC1=O)[C@H]1C=C[C@@H]2C1 [Example 94, (1R,2R,3S,6S,7S)—N-[(1S)-1-cyano-2-[(3S)-2-oxopyrrolidin-3-yl]ethyl]-4-[(2S)-3,3-dimethyl-2-(2,2,2-trifluoroacetamido)butanoyl]-6-fluoro-4-azatricyclo[5.2.1.0^{2,6}]dec-8-ene-3-carboxamide], the EC50 ([1]; read-out: EC50 (class)) is reported as less than 100 nM, the EC50 [2] is reported as less than 100 nM and the IC50 (SARS-Cov-2 3CLpro) is reported as less than 20 nM. It also gave an IC50 (HRV3C) greater than 500 nM, a CC50 [3] greater than 1000 nM and a CC50 (HeLa cells) greater than 100000 nM.

CC(C)(C)[C@H](NC(=O)C(F)(F)F)C(=O)N1C[C@@H]2[C@H]3C[C@@H]([C@@H]2[C@H]1C(=O)N[C@H](C#N)C[C@@H]1CCNC1=O)C1(CC1)C3 [Compound 60, (1′S,2′R,5′S,6′S,7′S)—N-[(1S)-1-cyano-2-[(3S)-2-oxopyrrolidin-3-yl]ethyl]-4′-[(2S)-3,3-dimethyl-2-(2,2,2-trifluoroacetamido)butanoyl]-4′-azaspiro[cyclopropane-1,8′-tricyclo[5.2.1.0^{2,6}]decane]-5′-carboxamide] gave an EC50 ([1]; read-out: EC50 (class)) of 1000 to 10000 nM, an EC50 [2] of 100 to 1000 nM and an IC50 (SARS-Cov-2 3CLpro) of 20 to 200 nM. For the same molecule, the IC50 (HRV3C) was greater than 10000 nM, the CC50 [3] was greater than 10000 nM and the CC50 (HeLa cells) was greater than 100000 nM. It also gave an IC50 (human cathepsin L) of no less than 10000 nM.

Molecule CC(C)(C)[C@H](NC(=O)C(F)(F)F)C(=O)N1C[C@@H]2[C@H]3C[C@@H]([C@@H]2[C@H]1C(=O)N[C@H](C#N)C[C@@H]1CCNC1=O)[C@H](F)C3 [Example 86, (1S,2R,3S,6R,7S,9R)—N-[(1S)-1-cyano-2-[(3S)-2-oxopyrrolidin-3-yl]ethyl]-4-[(2S)-3,3-dimethyl-2-(2,2,2-trifluoroacetamido)butanoyl]-9-fluoro-4-azatricyclo[5.2.1.0^{2,6}]decane-3-carboxamide] has an EC50 ([1]; read-out: EC50 (class)) of less than 100 nM, an EC50 [2] of less than 100 nM and an IC50 (SARS-Cov-2 3CLpro) of less than 20 nM. For the same molecule, the IC50 (HRV3C) was greater than 500 nM, the CC50 [3] was greater than 10000 nM and the CC50 (HeLa cells) was greater than 100000 nM. It also gave an IC50 (human cathepsin L) of no less than 10000 nM.

For CC(C)(C)[C@H](NC(=O)C(F)(F)F)C(=O)N1C[C@H]2[C@@H]([C@H]1C(=O)N[C@H](C#N)CC1CC3(COC3)NC1=O)[C@H]1C=C[C@@H]2C1 (stereo partly drawn) [Compound 106, (1R,2S,3S,6R,7S)—N-[(1S)-1-cyano-2-{6-oxo-2-oxa-5-azaspiro[3.4]octan-7-yl}ethyl]-4-[(2S)-3,3-dimethyl-2-(2,2,2-trifluoroacetamido)butanoyl]-4-azatricyclo[5.2.1.0^{2,6}]dec-8-ene-3-carboxamide], the EC50 ([1]; read-out: EC50 (class)) was less than 100 nM, the EC50 [2] was less than 100 nM and the IC50 (SARS-Cov-2 3CLpro) was less than 20 nM. The IC50 (HRV3C) was greater than 500 nM, the CC50 [3] was greater than 10000 nM and the CC50 (HeLa cells) was greater than 100000 nM.

In the case of CC(C)(C)[C@H](NC(=O)C(F)(F)F)C(=O)N1C[C@@H]2[C@H]3CC[C@H](CC3)[C@@H]2[C@H]1C(=O)N[C@H](C#N)C[C@@H]1CCNC1=O [Compound 71b], the EC50 ([1]; read-out: EC50 (class)) is reported as less than 100 nM, the EC50 [2] is reported as less than 100 nM and the IC50 (SARS-Cov-2 3CLpro; [5]) is reported as less than 20 nM. It also gave an IC50 (HRV3C) greater than 10000 nM, a CC50 [3] greater than 10000 nM and a CC50 (HeLa cells) greater than 100000 nM.

CC(C)(C)[C@H](NC(=O)C(F)(F)F)C(=O)N1C[C@@H]2[C@H]3C[C@@H]([C@@H]2[C@H]1C(=O)N[C@H](C#N)C[C@@H]1CCNC1=O)C(F)(F)C3 [Compound 61, (1S,2R,3S,6R,7S)—N-[(1S)-1-cyano-2-[(3S)-2-oxopyrrolidin-3-yl]ethyl]-4-[(2S)-3,3-dimethyl-2-(2,2,2-trifluoroacetamido)butanoyl]-9,9-difluoro-4-azatricyclo[5.2.1.0^{2,6}]decane-3-carboxamide] gave an EC50 ([1]; read-out: EC50 (class)) of 100 to 1000 nM, an IC50 (SARS-Cov-2 3CLpro) of less than 20 nM and an IC50 (HRV3C) greater than 10000 nM. It also gave a CC50 [3] greater than 10000 nM, a CC50 (HeLa cells) greater than 100000 nM and an IC50 (human cathepsin L) of no less than 10000 nM.

CC(C)(C)[C@H](NC(=O)C(F)(F)F)C(=O)N1C[C@H]2[C@@H]([C@H]1C(=O)N[C@H](C#N)C[C@@H]1CCNC1=O)[C@H]1C=C[C@@H]2CC1 [Compound 59b] was tested, and the EC50 ([1]; read-out: EC50 (class)) was less than 100 nM, the IC50 (SARS-Cov-2 3CLpro; [5]) was less than 20 nM and the IC50 (HRV3C) was greater than 10000 nM. It also gave a CC50 [3] greater than 10000 nM, a CC50 (HeLa cells) greater than 100000 nM and an IC50 (human cathepsin L) of no less than 10000 nM.

Work on CC(C)(C)[C@H](NC(=O)[C@H]1CCCO1)C(=O)N1C[C@H]2[C@@H]([C@H]1C(=O)N[C@H](C#N)C[C@@H]1CCNC1=O)[C@H]1C=C[C@@H]2C1 [Example 22, (1S,3aR,4S,7R,7aS)-N-((S)-1-cyano-2-((S)-2-oxopyrrolidin-3-yl)ethyl)-2-((S)-3,3-dimethyl-2-((R)-tetrahydrofuran-2-carboxamido)butanoyl)-2,3,3a,4,7,7a-hexahydro-1H-4,7-methanoisoindole-1-carboxamide] yielded an EC50 [1, 6] of 1000 to 10000 nM, an EC50 [2, 7] of 1000 to 10000 nM and an IC50 (SARS-Cov-2 3CLpro; [5]) of 200 to 2000 nM. The IC50 (HRV3C) was greater than 10000 nM, the EC50 [4] was 1000 to 10000 nM and the IC50 (human cathepsin L) was no less than 10000 nM.

For [2H][C@@H]1[C@H]([2H])[C@@H]2C[C@H]1[C@H]1[C@@H]2CN(C(=O)[C@@H](NC(=O)C(F)(F)F)C(C)(C)C)[C@@H]1C(=O)N[C@H](C#N)C[C@@H]1CCNC1=O [Example 32, (1S,3aR,4R,5S,6R,7S,7aS)-N-((S)-1-cyano-2-((S)-2-oxopyrrolidin-3-yl)ethyl)-2-((S)-3,3-dimethyl-2-(2,2,2-trifluoroacetamido)butanoyl)octahydro-1H-4,7-methanoisoindole-5,6-d^2-1-carboxamide], the EC50 [1, 6] was less than 100 nM, the EC50 [2, 7] was less than 100 nM and the IC50 (SARS-Cov-2 3CLpro; [5]) was less than 20 nM. The IC50 (HRV3C) was greater than 10000 nM, the EC50 [4] was less than 100 nM and the IC50 (human cathepsin L) was no less than 10000 nM.

CC(C)(C)[C@H](NC(=O)C(F)(F)F)C(=O)N1C[C@H]2[C@@H]([C@H]1C(=O)N[C@H](C#N)C[C@@H]1CCNC1=O)[C@H]1CC[C@@H]2O1 (mixture of isomers) [Compound 58, (1S,3aR,4S,7R,7aS)-N-((S)-1-cyano-2-((S)-2-oxopyrrolidin-3-yl)ethyl)-2-((S)-3,3-dimethyl-2-(2,2,2-trifluoroacetamido)butanoyl)octahydro-1H-4,7-epoxyisoindole-1-carboxamide] gave an EC50 [1, 6] of 1000 to 10000 nM, an EC50 [2, 7] of 1000 to 10000 nM and an IC50 (SARS-Cov-2 3CLpro; [5]) of 200 to 2000 nM. For the same molecule, the IC50 (HRV3C) was greater than 10000 nM, the EC50 [4] was 1000 to 10000 nM and the IC50 (human cathepsin L) was no less than 10000 nM.

For CC(C)(C)[C@H](NC(=O)C(F)(F)F)C(=O)N1C[C@@H]2[C@H]3C[C@@H]([C@@H]2[C@H]1C(=O)N[C@H](C#N)C[C@@H]1CCNC1=O)[C@H]1[C@@H]3C1(F)F [Example 23, (1S,2S,3S,6R,7R,8R,10S)—N-[(1S)-1-cyano-2-[(3S)-2-oxopyrrolidin-3-yl]ethyl]-4-[(2S)-3,3-dimethyl-2-(2,2,2-trifluoroacetamido)butanoyl]-9,9-difluoro-4-azatetracyclo[5.3.1.0^{2,6}0.0^{8,10}]undecane-3-carboxamide], the EC50 [1, 6] was 1000 to 10000 nM, the EC50 [2, 7] was 100 to 1000 nM and the IC50 (SARS-Cov-2 3CLpro; [5]) was 20 to 200 nM. It also gave an IC50 (HRV3C) greater than 10000 nM, an EC50 [4] of 100 to 1000 nM and an IC50 (human cathepsin L) of no less than 10000 nM.

In the case of N#C[C@H](C[C@@H]1CCNC1=O)NC(=O)[C@@H]1[C@@H]2[C@H](CN1C(=O)c1cc3c(Cl)cc(Cl)cc3[nH]1)[C@@H]1C=C[C@H]2C1 [Compound 44, (1S,3aR,4S,7R,7aS)-N-((S)-1-cyano-2-((S)-2-oxopyrrolidin-3-yl)ethyl)-2-(4,6-dichloro-1H-indole-2-carbonyl)-2,3,3a,4,7,7a-hexahydro-1H-4,7-methanoisoindole-1-carboxamide], the EC50 [1, 6] is reported as 100 to 1000 nM, the EC50 [2, 7] is reported as 1000 to 10000 nM and the IC50 (SARS-Cov-2 3CLpro; [5]) is reported as 20 to 200 nM. For the same molecule, the IC50 (HRV3C) was greater than 10000 nM, the EC50 [4] was 1000 to 10000 nM and the IC50 (human cathepsin L) was no less than 10000 nM.

C=CC(C)(C)[C@H](NC(=O)C(F)(F)F)C(=O)N1C[C@H]2[C@@H]([C@H]1C(=O)N[C@H](C#N)C[C@@H]1CCNC1=O)[C@H]1C=C[C@@H]2C1 [Example 28, (1R,2S,3S,6R,7S)—N-[(1S)-1-cyano-2-[(3S)-2-oxopyrrolidin-3-yl]ethyl]-4-[(2S)-3,3-dimethyl-2-(2,2,2-trifluoroacetamido)pent-4-enoyl]-4-azatricyclo[5.2.1.0^{2,6}]dec-8-ene-3-carboxamide] gave an EC50 [1, 6] of less than 100 nM, an EC50 [2, 7] of less than 100 nM and an IC50 (SARS-Cov-2 3CLpro; [5]) of less than 20 nM. It also gave an IC50 (HRV3C) greater than 10000 nM, an EC50 [4] of less than 100 nM and an IC50 (human cathepsin L) of no less than 10000 nM.

Work on CC(C)(C)[C@H](NC(=O)C(F)(F)F)C(=O)N1C[C@@H]2[C@H]3C[C@@H]([C@@H]2[C@H]1C(=O)N[C@H](C#N)C[C@@H]1CCNC1=O)[C@H](O)C3 [Example 85, (1S,2R,3S,6R,7S,9R)—N-[(1S)-1-cyano-2-[(3S)-2-oxopyrrolidin-3-yl]ethyl]-4-[(2S)-3,3-dimethyl-2-(2,2,2-trifluoroacetamido)butanoyl]-9-hydroxy-4-azatricyclo[5.2.1.0^{2,6}]decane-3-carboxamide] yielded an EC50 ([1]; Betacoronavirus 1, OC43, HeLa, 144 h, read-out: EC50 (bound)) greater than 10000 nM, an EC50 ([2]; Severe acute respiratory syndrome coronavirus 2, 96 h, […], numeric bounds given instead of class symbols) greater than 10000 nM and an IC50 (SARS-Cov-2 3CLpro; [5]) of 200 to 2000 nM. The IC50 (HRV3C) was greater than 10000 nM, the EC50 [4] was 10000 to 50000 nM and the IC50 (human cathepsin L) was no less than 10000 nM.
